# Laboratory results reported in patent US20200024278A1, “COMPOSITION COMPRISING ANTIBIOTIC COMPOUND AND AN HETEROCYCLIC COMPOUND AND THEIR USE IN PREVENTING OR TREATING BACTERIAL INFECTIONS” (MUTABILIS, priority 2016, published 2020).
# Experiments:
# Assay in all cases: MIC, broth microdilution (CLSI), substance alone or ATB combined with compound at 4 or 8 μg/mL
# ECO 190317 = type: cell-based, E. coli
# Experimental: (§1) Compounds of the present invention were assessed against genotyped bacterial strains alone or in combination with an antibacterial. In the assays, MICs of said compounds or combination of antibiotics with fixed concentrations of said compounds (4 or 8 μg/mL) were determined by the broth microdilution method according to the Clinical Laboratory Standards Institute (CLSI-M7-A7). Briefly, compounds alone according to the invention were prepared in DMSO and spotted (2 μL each) on sterile polystyrene plates (Corning, 3788). Combinations of compounds and antibiotics dilutions were prepared in DMSO and spotted (1 μL each) on sterile polystyrene plates (Corning, 3788). Log phase bacterial suspensions were adjusted to a final density of 5·10^5 CFU/mL in cation-adjusted Mueller-Hinton broth (ca-MHB; Becton-Dickinson and Company) and added to each well (98 μL). Assays including Fosfomycin were supplemented with 25 μg/ml of Glucose-6-phosphate. Microplates were incubated for 16-20 h at 35° C. in ambient air. The MIC of the compounds was defined as the lowest concentration of said compounds that prevented bacterial growth as read by visual inspection. The MIC of ATB at each compound concentration was defined as the lowest concentration of ATB that prevented bacterial growth as read by visual inspection.
# ECO UFR39 = type: cell-based, E. coli; details: for MIC ATB combined with Example compound: compound @8 μg/ml, ECO UFR39
# Experimental: as §1
# KPN 6299 = type: cell-based, K. pneumoniae; details: MIC of CIP, compound @8 μg/ml
# Experimental: as §1
# KPN BAA-1898 = type: cell-based, K. pneumoniae
# Experimental: as §1
# KPN UFR42 = type: cell-based, K. pneumoniae; details: for MIC ATB combined with Example compound: compound @8 μg/ml, KPN UFR42
# Experimental: as §1
# ECL P99 = type: cell-based, E. cloacae
# Experimental: as §1
# PAE 105250 = type: cell-based, P. aeruginosa; details: for MIC ATB combined with compound / MIC ATB combined with Example compound: compound @8 μg/ml, PAE 105250
# Experimental: as §1
# PAE UFR48 = type: cell-based, P. aeruginosa; details: for MIC ATB combined with compound / MIC ATB combined with Example compound: compound @8 μg/ml, PAE UFR48
# Experimental: as §1
# PAE UFR90 = type: cell-based, P. aeruginosa; details: for MIC ATB combined with compound / MIC ATB combined with Example compound: compound @8 μg/ml, PAE UFR90
# Experimental: as §1
# SAU 29213 = type: cell-based, S. aureus; details: for MIC ATB combined with compound / MIC ATB combined with Example compound: compound @8 μg/ml, SAU 29213
# Experimental: as §1
# SPN 49619 = type: cell-based, S. pneumoniae; details: for MIC ATB combined with compound / MIC ATB combined with Example compound: compound @8 μg/ml, SPN 49619
# Experimental: as §1
compound,measurement,setting,value
O=C1N2CC(c3ncco3)=CC(C2)N1OC(F)(F)C(=O)O (stereo not shown) [Example 7],MIC,ECO 190317; Escherichia coli,4 µg/mL
same,MIC ATB combined with Example compound,"ECO 190317; MIC of CIP, compound @8 μg/ml, ECO 190317",<0.031 µg/mL
same,MIC,ECO UFR39; Escherichia coli,8 µg/mL
same,MIC ATB combined with Example compound,ECO UFR39; MIC of CIP,<0.031 µg/mL
same,MIC ATB combined with Example compound,ECO UFR39; MIC of CPO,<0.031 µg/mL
same,MIC ATB combined with Example compound,KPN 6299,8 µg/mL
same,MIC,"KPN BAA-1898; Klebsiella pneumoniae, BAA1898",8 µg/mL
same,MIC ATB combined with Example compound,"KPN BAA-1898; MIC of CIP, compound @8 μg/ml, KPN BAA-1898",1 µg/mL
same,MIC,KPN UFR42; Klebsiella pneumoniae,16 µg/mL
same,MIC ATB combined with Example compound,KPN UFR42; MIC of CIP,>32 µg/mL
same,MIC ATB combined with Example compound,KPN UFR42; MIC of CPO,<=0.031 μg/mL
same,MIC,ECL P99; Enterobacter cloacae,8 µg/mL
same,MIC ATB combined with Example compound,"ECL P99; MIC of CIP, compound @8 μg/ml, ECL P99",<0.031 µg/mL
same,MIC ATB combined with compound,PAE 105250; ATB ATM,8 µg/mL
same,MIC ATB combined with compound,PAE 105250; ATB FEP,8 µg/mL
same,MIC ATB combined with compound,PAE 105250; ATB FOS,>128 µg/mL
same,MIC ATB combined with compound,PAE 105250; ATB MEM,4 µg/mL
same,MIC ATB combined with compound,PAE 105250; ATB PIP,>32 µg/mL
same,MIC ATB combined with Example compound,PAE 105250; MIC of CIP,0.125 µg/mL
same,MIC ATB combined with Example compound,PAE 105250; MIC of CPO,16 µg/mL
same,MIC,PAE 105250; Pseudomonas aeruginosa,> 32 µg/mL
same,MIC ATB combined with compound,PAE UFR48; ATB ATM,>32 µg/mL
same,MIC ATB combined with compound,PAE UFR48; ATB FEP,32 µg/mL
same,MIC ATB combined with compound,PAE UFR48; ATB FOS,32 µg/mL
same,MIC ATB combined with compound,PAE UFR48; ATB MEM,4 µg/mL
same,MIC ATB combined with compound,PAE UFR48; ATB PIP,>32 µg/mL
same,MIC ATB combined with Example compound,PAE UFR48; MIC of CIP,4 µg/mL
same,MIC ATB combined with Example compound,PAE UFR48; MIC of CPO,>32 µg/mL
same,MIC,PAE UFR48; Pseudomonas aeruginosa,> 32 µg/mL
same,MIC ATB combined with compound,PAE UFR90; ATB ATM,16 µg/mL
same,MIC ATB combined with compound,PAE UFR90; ATB FEP,4 µg/mL
same,MIC ATB combined with compound,PAE UFR90; ATB FOS,8 µg/mL
same,MIC ATB combined with compound,PAE UFR90; ATB MEM,2 µg/mL
same,MIC ATB combined with compound,PAE UFR90; ATB PIP,>32 µg/mL
same,MIC ATB combined with Example compound,PAE UFR90; MIC of CIP,1 µg/mL
same,MIC ATB combined with Example compound,PAE UFR90; MIC of CPO,16 µg/mL
same,MIC,PAE UFR90; Pseudomonas aeruginosa,> 32 µg/mL
same,MIC ATB combined with compound,SAU 29213; ATB ATM,>32 µg/mL
same,MIC ATB combined with compound,SAU 29213; ATB FEP,1 µg/mL
same,MIC ATB combined with compound,SAU 29213; ATB FOS,0.5 µg/mL
same,MIC ATB combined with compound,SAU 29213; ATB MEM,<=0.031 μg/mL
same,MIC ATB combined with compound,SAU 29213; ATB PIP,1 µg/mL
same,MIC ATB combined with Example compound,SAU 29213; MIC of CIP,0.25 µg/mL
same,MIC ATB combined with Example compound,SAU 29213; MIC of CLI,0.031 µg/mL
same,MIC ATB combined with Example compound,SAU 29213; MIC of CPO,0.25 µg/mL
same,MIC ATB combined with Example compound,SAU 29213; MIC of DAP,1 µg/mL
same,MIC ATB combined with Example compound,SAU 29213; MIC of ERY,0.25 µg/mL
same,MIC ATB combined with Example compound,SAU 29213; MIC of LZD,1 µg/mL
same,MIC ATB combined with Example compound,SAU 29213; MIC of RIF,0.0078 µg/mL
same,MIC ATB combined with Example compound,SAU 29213; MIC of SYN,0.25 µg/mL
same,MIC ATB combined with Example compound,SAU 29213; MIC of VAN,1 µg/mL
same,MIC,"SAU 29213; Staphylococcus aureus, MSSA",32 µg/mL
same,MIC ATB combined with compound,SPN 49619; ATB ATM,>32 µg/mL
same,MIC ATB combined with compound,SPN 49619; ATB FEP,<=0.031 μg/mL
same,MIC ATB combined with compound,SPN 49619; ATB FOS,8 µg/mL
same,MIC ATB combined with compound,SPN 49619; ATB MEM,<=0.031 μg/mL
same,MIC ATB combined with compound,SPN 49619; ATB PIP,0.5 µg/mL
same,MIC ATB combined with Example compound,SPN 49619; MIC of CIP,0.5 µg/mL
same,MIC ATB combined with Example compound,SPN 49619; MIC of CLI,0.125 µg/mL
same,MIC ATB combined with Example compound,SPN 49619; MIC of CPO,<=0.031 μg/mL
same,MIC ATB combined with Example compound,SPN 49619; MIC of DAP,0.125 µg/mL
same,MIC ATB combined with Example compound,SPN 49619; MIC of ERY,0.125 µg/mL
same,MIC ATB combined with Example compound,SPN 49619; MIC of LZD,1 µg/mL
same,MIC ATB combined with Example compound,SPN 49619; MIC of RIF,0.0078 µg/mL
same,MIC ATB combined with Example compound,SPN 49619; MIC of SYN,0.5 µg/mL
same,MIC ATB combined with Example compound,SPN 49619; MIC of VAN,0.125 µg/mL
same,MIC,SPN 49619; Streptococcus pneumoniae,16 µg/mL
